Experimental data from patent publication US10105372B2, “Methods of treating obesity using antioxidant inflammation modulators” (REATA PHARMACEUTICALS, INC., priority 2010, dated 2018).
Marks after values point to notes of the source that are not given here.

What was measured:
[1] = Phase 2b/3 trial, weight over 52 weeks; assay type: in vivo, human
Method: Weight measurements were included in the study as a basic clinical parameter. […] Screening estimated GFR was calculated as the mean of two estimated GFR results (differing no more than 25%) collected at least 5 days apart within a 3-week period. […] Exclusion criteria included type 1 diabetes, non-diabetic kidney disease, hemoglobin A1c>10%, QTc […] interval >450 milliseconds, evidence of hepatic dysfunction, and recent cardiovascular disease. […] Study drug was taken orally once daily in the morning one hour prior to food intake. Dose titration occurred as follows: (1) placebo; (2) 25 mg; (3) 25 mg, increased to 75 mg after 4 weeks; and (4) 25 mg, increased to 75 mg after 4 weeks, further increased to 150 mg after an additional 4 weeks. Randomization was stratified by CKD stage (3b versus 4), urinary albumin to creatinine ratio (ACR; ≤ versus >300 mg/g), and glucose control (hemoglobin A1c< versus ≥7%). An independent Data Safety Monitoring Board monitored patient safety. […] The double-blinded structure of the study was maintained throughout the 52-week period. […] Treatment was discontinued in all groups at week 52 (including the placebo group), and final clinical and laboratory measurements were taken at week 56.

[2] = Phase 2 clinical trial, renal function, glycemic control, circulating endothelial cells; assay type: in vivo, human
Text: See U.S. Patent Application Publication 2009/0326063A1, which is incorporated by reference herein in its entirety. […] In this study, the protocol stipulated that patient weights were to be taken at baseline (D−1=1 day before initiation of dosing), Day 28, and Day 56. Weight data were available for all but one patient who started the study (a baseline weight was not recorded for this patient). In the remaining patients, 14 of 17 had lost weight at Day 28 (mean weight loss was 1.6% of baseline weight) and 17 of 17 had lost weight at Day 56 (mean weight loss was 3.7% of baseline, with a median of 3.1%). […] Prior to initiation of treatment, basic clinical observations (e.g., weight, blood pressure, height) were recorded along with baseline values for serum creatinine, blood urea nitrogen, serum phosphorus, serum uric acid, angiotensin II, fasting glucose, hemoglobin A1c, circulating endothelial cells (CECs), and iNOS-positive CECs. […] Reductions of more than 10% were also observed in BUN, serum creatinine, uric acid, and urinary albumin creatinine ratio.

[3] = 75 mg, Week 56 (treatment discontinued at week 52)
[4] = by week 52, patients treated with bardoxolone methyl
[5] = Stratum 2, All Patients (n = 18), change

COC(=O)[C@]12CCC(C)(C)C[C@H]1[C@H]1C(=O)C=C3[C@@]4(C)C=C(C#N)C(=O)C(C)(C)[C@@H]4CC[C@@]3(C)[C@]1(C)CC2 [bardoxolone methyl]
Change in weight from baseline to Week 52: Decrease >5 kg, patients ([1]; 25 mg, N = 48): 35 (73) n (%)
Change in weight from baseline to Week 52: Decrease >10 kg, patients ([1]; 25 mg, N = 48): 16 (33) n (%)
Change in weight from baseline to Week 52: Decrease >15 kg, patients ([1]; 25 mg, N = 48): 9 (19) n (%)
Change in weight from baseline to Week 52: Decrease within 5 kg, patients ([1]; 25 mg, N = 48): 8 (17) n (%)
Change in weight from baseline to Week 52: Increase >5 kg, patients ([1]; 25 mg, N = 48): 0 n (%)
Change in weight from baseline to Week 52: Increase within 5 kg, patients ([1]; 25 mg, N = 48): 5 (10) n (%)
Change from baseline weight, Mean ([1]; 25 mg, Week 4): -1.4 kg
Change from baseline weight, Mean ([1]; 25 mg, Week 8): -2.7 kg
Change from baseline weight, Mean ([1]; 25 mg, Week 12): -3.9 kg
Change from baseline weight, Mean ([1]; 25 mg, Week 16): -4.3 kg
Change from baseline weight, Mean ([1]; 25 mg, Week 20): -5.0 kg
Change from baseline weight, Mean ([1]; 25 mg, Week 24): -5.9 kg
Change from baseline weight, Mean ([1]; 25 mg, Week 28): -6.3 kg
Change from baseline weight, Mean ([1]; 25 mg, Week 32): -6.7 kg
Change from baseline weight, Mean ([1]; 25 mg, Week 36): -7.4 kg
Change from baseline weight, Mean ([1]; 25 mg, Week 40): -7.9 kg
Change from baseline weight, Mean ([1]; 25 mg, Week 44): -8.2 kg
Change from baseline weight, Mean ([1]; 25 mg, Week 48): -8.8 kg
Change from baseline weight, Mean ([1]; 25 mg, Week 52): -9.3 kg
Change from baseline weight, Mean ([1]; 25 mg, Week 56 (treatment discontinued at week 52)): -7.7 kg
Change in weight from baseline to Week 52: Decrease >5 kg, patients ([1]; 75 mg, N = 48): 32 (67) n (%)
Change in weight from baseline to Week 52: Decrease >10 kg, patients ([1]; 75 mg, N = 48): 14 (29) n (%)
Change in weight from baseline to Week 52: Decrease >15 kg, patients ([1]; 75 mg, N = 48): 4 (8) n (%)
Change in weight from baseline to Week 52: Decrease within 5 kg, patients ([1]; 75 mg, N = 48): 12 (25) n (%)
Change in weight from baseline to Week 52: Increase >5 kg, patients ([1]; 75 mg, N = 48): 0 n (%)
Change in weight from baseline to Week 52: Increase within 5 kg, patients ([1]; 75 mg, N = 48): 4 (8) n (%)
Change from baseline weight, Mean ([1]; 75 mg, Week 4): -1.4 kg
Change from baseline weight, Mean ([1]; 75 mg, Week 8): -2.6 kg
Change from baseline weight, Mean ([1]; 75 mg, Week 12): -3.4 kg
Change from baseline weight, Mean ([1]; 75 mg, Week 16): -4.1 kg
Weight, Mean ([1]; 75 mg, Week 16): 91.7 kg
Change from baseline weight, Mean ([1]; 75 mg, Week 20): -4.4 kg
Weight, Mean ([1]; 75 mg, Week 20): 92.0 kg
Change from baseline weight, Mean ([1]; 75 mg, Week 24): -4.7 kg
Weight, Mean ([1]; 75 mg, Week 24): 91.7 kg
Change from baseline weight, Mean ([1]; 75 mg, Week 28): -5.1 kg
Weight, Mean ([1]; 75 mg, Week 28): 91.8 kg
Change from baseline weight, Mean ([1]; 75 mg, Week 32): -6.2 kg
Weight, Mean ([1]; 75 mg, Week 32): 91.6 kg
Change from baseline weight, Mean ([1]; 75 mg, Week 36): -6.1 kg
Weight, Mean ([1]; 75 mg, Week 36): 91.0 kg
Change from baseline weight, Mean ([1]; 75 mg, Week 40): -6.5 kg
Weight, Mean ([1]; 75 mg, Week 40): 90.6 kg
Change from baseline weight, Mean ([1]; 75 mg, Week 44): -6.9 kg
Weight, Mean ([1]; 75 mg, Week 44): 90.8 kg
Change from baseline weight, Mean ([1]; 75 mg, Week 48): -7.4 kg
Weight, Mean ([1]; 75 mg, Week 48): 90.4 kg
Change from baseline weight, Mean ([1]; 75 mg, Week 52): -7.7 kg
Weight, Mean ([1]; 75 mg, Week 52): 90.0 kg
Change from baseline weight, Mean [1, 3]: -7.6 kg
Weight, Mean [1, 3]: 90.7 kg
Change in weight from baseline to Week 52: Decrease >5 kg, patients ([1]; 150 mg, N = 45): 34 (76) n (%)
Change in weight from baseline to Week 52: Decrease >10 kg, patients ([1]; 150 mg, N = 45): 22 (49) n (%)
Change in weight from baseline to Week 52: Decrease >15 kg, patients ([1]; 150 mg, N = 45): 12 (27) n (%)
Change in weight from baseline to Week 52: Decrease within 5 kg, patients ([1]; 150 mg, N = 45): 8 (18) n (%)
Change in weight from baseline to Week 52: Increase >5 kg, patients ([1]; 150 mg, N = 45): 1 (2) n (%)
Change in weight from baseline to Week 52: Increase within 5 kg, patients ([1]; 150 mg, N = 45): 2 (4) n (%)
Change from baseline weight, Mean ([1]; 150 mg, Week 4): -1.3 kg
Change from baseline weight, Mean ([1]; 150 mg, Week 8): -2.1 kg
Change from baseline weight, Mean ([1]; 150 mg, Week 12): -3.3 kg
Change from baseline weight, Mean ([1]; 150 mg, Week 16): -3.9 kg
Change from baseline weight, Mean ([1]; 150 mg, Week 20): -5.0 kg
Change from baseline weight, Mean ([1]; 150 mg, Week 24): -5.8 kg
Change from baseline weight, Mean ([1]; 150 mg, Week 28): -6.7 kg
Change from baseline weight, Mean ([1]; 150 mg, Week 32): -7.2 kg
Change from baseline weight, Mean ([1]; 150 mg, Week 36): -8.1 kg
Change from baseline weight, Mean ([1]; 150 mg, Week 40): -8.7 kg
Change from baseline weight, Mean ([1]; 150 mg, Week 44): -9.2 kg
Change from baseline weight, Mean ([1]; 150 mg, Week 48): -10 kg
Change from baseline weight, Mean ([1]; 150 mg, Week 52): -10 kg
Change from baseline weight, Mean ([1]; 150 mg, Week 56 (treatment discontinued at week 52)): -9.6 kg
fraction of patients who had lost more than 5 kg [1, 4]: at least two thirds
fraction of patients who had lost more than 10 kg [1, 4]: Approximately one third
CECs ([2]; Phase 2 study): Significant reductions
iNOS-positive CECs ([2]; Phase 2 study): Significant reductions
reduction in BUN ([2]; Phase 2 study): more than 10%
reduction in serum creatinine ([2]; Phase 2 study): more than 10%
reduction in uric acid ([2]; Phase 2 study): more than 10%
Patients with eGFR Increase ([2]; Stratum 2, All Patients (n = 18)): 89%
Blood Urea Nitrogen [2, 5]: −14.9%
Circulating Endothelial Cells [2, 5]: −34.8%^†
Creatinine Clearance [2, 5]: +38.2%^†
Phosphorus [2, 5]: −2.5%
Serum Creatinine [2, 5]: −17.5%**
Uric Acid [2, 5]: −13.3%^†
eGFR [2, 5]: +24.1%***
iNOS+ Circulating Endothelial Cells [2, 5]: −65.8%*
Hemoglobin A1c ([2]; Stratum 2, patients with BL ≥ 7.0%, change): −0.1%
eGFR increase ([2]; after 28 days of treatment): approximately 10%
eGFR increase compared to baseline ([2]; after 56 days of treatment): more than 20%
